Consider 40 compounds from PubChem BioAssay AID743179 (NMMLSC, 2013).

Experiment [1] is described as follows: myeloid differentiation promoters in THP1 cells, SAR follow-up, cell-based, MAC1 flow cytometry, set 1 (AID 743179). The conditions noted are these: THP1 MAC1+ differentiation, flow cytometry, 4 days; at 10 µM (top of the series).
For experiment [2], the system named is THP1 MAC1+ differentiation, flow cytometry, 4 days. Described as above.

Calls of active or inactive are those of the source.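 The calls were made as follows: active = at least 15% of cells MAC1 differentiation marker positive at top dose, with half-maximal concentration under 10 µM; inactive = the rest.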

Consider `N#Cc1ccc(C(=O)NCCC(=O)N[C@@H]2CCCc3ccccc32)cc1`, for which, in experiment [1], the MAC1+ percent, differentiation was 17% (inactive).

On to `O=C(CCCNC(=O)c1ccc(Cl)c(Cl)c1)N[C@@H]1CCCc2ccccc21`, for which the MAC1+ percent, differentiation in experiment [1] was 3% (inactive).

As for `CC(C)(C)OC(=O)NCCC(=O)N[C@H]1CCCc2ccccc21`, the MAC1+ percent, differentiation in experiment [1] is 2% (inactive).

As to `COc1ccc(C(=O)NCCC(=O)N[C@@H]2CCCc3ccccc32)cc1`, in experiment [2], the EC50 – broadly, the midpoint of the concentration-response curve – is 5.16 µM.

In the case of `Cc1ccc(C)c(OCCn2cc(C(=O)O)c3ccccc32)c1`, the MAC1+ percent, differentiation in experiment [1] is 2% (inactive).

As to `CC(=O)NCCC(=O)N[C@@H]1CCCc2ccccc21`, the MAC1+ percent, differentiation in experiment [1] is 2% (inactive).

With `O=C(CNC(=O)c1ccc(Cl)c(Cl)c1)N[C@@H]1CCCc2ccccc21`, the MAC1+ percent, differentiation in experiment [1] was 6% (inactive).

With `O=C(NC1CCc2ccccc21)C1CCCN(C(=O)c2ccc(Cl)cc2)C1` (stereo not given), the MAC1+ percent, differentiation in experiment [1] is 4% (inactive).

With `CC(c1ccccc1)N(C)C(=O)CCNC(=O)c1ccc(Cl)cc1` (stereo not given), the MAC1+ percent, differentiation in experiment [1] is 7% (inactive).

As to `O=C(CCNC(=O)c1ccc(OC(F)(F)F)cc1)N[C@@H]1CCCc2ccccc21`, the EC50 in experiment [2] is 2.07 µM.

`O=C(CCNC(=O)c1ccc(Cl)cc1)NC1CCCc2ccccc21` (stereo not given): in experiment [2], the EC50 is 3.79 µM.

As for `O=C(CCNC(=O)c1ccc2c(c1)OC(F)(F)O2)N[C@@H]1CCCc2ccccc21`, in experiment [2], the EC50 is 4.28 µM.

As for `O=C(NC1CCOc2ccccc21)C1CCCN(C(=O)c2ccc(Cl)cc2)C1` (stereo not given), the MAC1+ percent, differentiation in experiment [1] is 5% (inactive).

Consider `O=C(O)c1ccccc1OCc1ccccc1Br`, for which the MAC1+ percent, differentiation in experiment [1] is 4% (inactive).

As to `O=C(CCCNC(=O)c1ccc(OC(F)(F)F)cc1)N[C@@H]1CCCc2ccccc21`, the MAC1+ percent, differentiation in experiment [1] is 3% (inactive).

Turning to `O=C(CCCNC(=O)c1ccc(C(F)(F)F)cc1)N[C@@H]1CCCc2ccccc21`, the MAC1+ percent, differentiation in experiment [1] was 2% (inactive).

With `O=C(CNC(=O)c1ccc(OC(F)(F)F)cc1)N[C@@H]1CCCc2ccccc21`, the MAC1+ percent, differentiation in experiment [1] is 3% (inactive).

As for `CC(NC(=O)C1CCCN(C(=O)c2ccc(Cl)cc2)C1)c1ccccc1` (stereo not given), in experiment [1], the MAC1+ percent, differentiation is 6% (inactive).

Regarding `O=C(CNC(=O)c1ccc(Cl)cc1)N[C@@H]1CCCc2ccccc21`, the MAC1+ percent, differentiation in experiment [1] is 4% (inactive).

Turning to `O=C(CCNC(=O)c1ccc(Cl)cc1)N[C@@H]1CCCc2ccccc21`, in experiment [2], the EC50 is 3.09 µM.

In the case of `O=C(CCNC(=O)c1ccc(Cl)c(Cl)c1)N[C@@H]1CCCc2ccccc21`, the MAC1+ percent, differentiation in experiment [1] is 109% (inactive).

In the case of `CC(NC(=O)CCNC(=O)c1ccc(Cl)cc1)c1ccc(F)cc1` (stereo not given), the MAC1+ percent, differentiation in experiment [1] is 6% (inactive).

`O=C(Cc1ccc(Cl)cc1)NCCC(=O)N[C@@H]1CCCc2ccccc21`: in experiment [1], the MAC1+ percent, differentiation is 13% (inactive).

`CC(NC(=O)CCNC(=O)c1ccc(Cl)cc1)c1ccc2c(c1)OCO2` (stereo not given): the MAC1+ percent, differentiation in experiment [1] is 5% (inactive).

For `O=C(CCNC(=O)c1ccc(Cl)cc1)NC1CCCCC1`, the MAC1+ percent, differentiation in experiment [1] is 3% (inactive).

In the case of `O=C(CCNC(=O)c1ccc(Cl)cc1)N[C@@H]1CCc2ccccc21`, the MAC1+ percent, differentiation in experiment [1] was 21% (inactive).

For `O=C(CNC(=O)c1ccc(C(F)(F)F)cc1)N[C@@H]1CCCc2ccccc21`, the MAC1+ percent, differentiation in experiment [1] is 3% (inactive).

`Cc1cccc(C(=O)NCCC(=O)NC2CCCc3ccccc32)c1` (stereo not given): the MAC1+ percent, differentiation in experiment [1] is 4% (inactive).

For the compound `O=C(CCNC(=O)c1ccccc1)N[C@@H]1CCCc2ccccc21`, the MAC1+ percent, differentiation in experiment [1] is 2% (inactive).

Take `C[C@@H](NC(=O)CCNC(=O)c1ccc(Cl)cc1)c1ccccc1`: the MAC1+ percent, differentiation in experiment [1] is 5% (inactive).

`O=C(CCNC(=O)c1ccc(Cl)cc1)N[C@H]1CCCc2ccccc21`: the MAC1+ percent, differentiation in experiment [1] was 7% (inactive).

With `CC(C)(C)OC(=O)NCCC(=O)N[C@@H]1CCCc2ccccc21`, the MAC1+ percent, differentiation in experiment [1] is 2% (inactive).

Turning to `O=C(CCNC(=O)c1cccc(Cl)c1)N[C@@H]1CCCc2ccccc21`, the EC50 in experiment [2] was 9.14 µM.

Consider `O=C(O)c1cccnc1Nc1ccc(Cl)cc1`, for which the EC50 in experiment [2] is 5.49 µM.

With `COc1ccccc1C(C)NC(=O)CCNC(=O)c1ccc(Cl)cc1` (stereo not given), the MAC1+ percent, differentiation in experiment [1] is -1% (inactive).

As to `Cc1ccc(C(=O)NCCC(=O)N[C@@H]2CCCc3ccccc32)cc1`, the MAC1+ percent, differentiation in experiment [1] was 97% (inactive).

For `O=C(CCCNC(=O)c1ccc(Cl)cc1)N[C@@H]1CCCc2ccccc21`, in experiment [1], the MAC1+ percent, differentiation was 5% (inactive).

In the case of `O=C(CCNC(=O)c1ccc(C(F)(F)F)cc1)N[C@@H]1CCCc2ccccc21`, the EC50 in experiment [2] is 2.49 µM.

Regarding `NCCC(=O)N[C@@H]1CCCc2ccccc21`, the MAC1+ percent, differentiation in experiment [1] is 1% (inactive).

On to `O=C(CCNC(=O)c1ccc(F)cc1)N[C@@H]1CCCc2ccccc21`, for which the MAC1+ percent, differentiation in experiment [1] was 46% (inactive).
